Assay results reported in the supplement of paper PMC10307832.

Key:
Assay in all cases: relative viability (nuclei count vs DMSO), 5 days (fraction); higher = more cells survive
Bromopyruvate = compound: C(C(=O)C(=O)O)Br [Bromopyruvate]
Method in brief: (§1)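 Lung cancer cell lines were seeded into 1536-well plates, kept overnight at 37 °C and pinned with five library-drug doses (not always all listed) spaced by √10. After 5 days, nuclei were Hoechst-stained, imaged at 4× and counted with MetaXpress. Viability is treated-well nuclei over vehicle-well nuclei, taken as a median across plates. Plates needed control CV below 25% and at least one doubling.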

Bicalutamide = compound: CC(O)(CS(=O)(=O)c1ccc(F)cc1)C(=O)Nc1ccc(C#N)c(C(F)(F)F)c1 [Bicalutamide]
Method in brief: as §1

[1] = compound: CC(O)(CS(=O)(=O)c1ccc(F)cc1)C(=O)Nc1ccc(C#N)c(C(F)(F)F)c1 [Bicalutamide] + Nc1nc2[nH]cc(CCc3ccc(C(=O)N[C@@H](CCC(=O)O)C(=O)O)cc3)c2c(=O)[nH]1 [Pemetrexed] (partner 0.2 µM)
Method in brief: (§2)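 Lung cancer cell lines were pin-tool dosed in 1536-well plates on the day after seeding, with either a lone drug or a fixed anchor-drug dose plus five library-drug doses (not always all listed) in √10 steps. Nuclei were counted on 4× images after 5 days. Relative viability is the ratio of treated-well to vehicle-well nuclei counts, with each value a median of duplicate plates.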

[2] = compound: C(C(=O)C(=O)O)Br [Bromopyruvate] + Cc1nc(NC(=O)N2CCC[C@H]2C(N)=O)sc1-c1ccnc(C(C)(C)C(F)(F)F)c1 [Alpelisib] (partner 2 µM)
Method in brief: as §2

Row | Cell Line | relative viability (Bromopyruvate; 1 µM) | relative viability (Bromopyruvate; 3.162 µM) | relative viability (Bromopyruvate; 10 µM) | relative viability (Bromopyruvate; 31.62 µM) | relative viability (Bromopyruvate; 100 µM) | relative viability (Bicalutamide; 0.08 µM) | relative viability (Bicalutamide; 0.253 µM) | relative viability (Bicalutamide; 0.8 µM) | relative viability (Bicalutamide; 2.53 µM) | relative viability ([1]; first compound 0.08 µM) | relative viability ([1]; first compound 0.253 µM) | relative viability ([1]; first compound 0.8 µM) | relative viability ([1]; first compound 2.53 µM) | relative viability ([2]; first compound 1 µM) | relative viability ([2]; first compound 3.162 µM) | relative viability ([2]; first compound 10 µM) | relative viability ([2]; first compound 31.62 µM) | relative viability ([2]; first compound 100 µM)
1 | 201T | 1.03 | 0.983 | 1.04 | 0.946 | 0.997 | 1.02 | 0.932 | 1.02 | 1.01 | 0.306 | 0.33 | 0.328 | 0.36 | 1.02 | 0.989 | 0.944 | 0.998 | 1.08
2 | A549 | 0.942 | 0.969 | 1.18 | 0.95 | 1.06 | 0.974 | 0.875 | 1.16 | 0.973 |  |  |  |  | 0.814 | 0.971 | 0.834 | 0.794 | 0.726
3 | A-427 | 1.05 | 1.09 | 1.16 | 0.967 | 1.1 | 0.996 | 1.02 | 1.17 | 0.869 | 0.986 | 0.968 | 1.11 | 0.913 | 1.12 | 1.07 | 1.09 | 1.05 | 1.02
4 | ABC-1 | 1.14 | 0.935 | 0.807 | 0.995 | 0.945 | 0.998 | 0.857 | 0.951 | 0.943 |  |  |  |  | 0.915 | 1.04 |  | 1.04 | 0.878
5 | BEN | 1.07 | 0.949 | 0.971 | 0.951 | 0.934 | 1.01 | 0.876 | 1.34 | 1.03 | 0.854 | 0.74 | 1.15 | 0.837 | 0.985 | 1.05 | 1.15 | 0.957 | 1.07
6 | CAL-12T | 0.972 | 0.982 | 0.919 | 0.982 | 0.956 | 1.03 | 0.855 | 1.11 | 0.842 | 1.34 | 1.06 | 1.28 | 1.14 | 1.17 | 1.49 | 1.38 | 1.25 | 0.952
7 | COR-L23 | 1.02 | 0.913 | 1.19 | 1.03 | 0.723 | 1.03 | 1.01 | 1.18 | 0.877 | 0.204 | 0.203 | 0.184 | 0.196 | 0.771 | 0.849 | 0.9 | 0.665 | 0.405
8 | COR-L 105 | 0.87 | 1.06 | 0.866 | 0.838 | 0.687 | 1.05 | 0.814 | 1.03 | 0.825 | 1.25 | 1.19 | 1.08 | 1.05 | 0.975 | 1.34 | 1.23 | 1.02 | 0.768
9 | Calu-6 | 0.934 | 0.995 | 1.12 | 0.994 | 0.809 | 1.09 | 0.989 | 1.07 | 0.987 |  |  |  |  | 1.09 | 1.02 | 1.05 | 0.952 | 0.615
10 | ChaGo-K-1 | 0.979 | 0.995 | 1.07 | 1 | 1.02 | 0.998 | 0.962 | 1.18 | 0.976 | 0.256 | 0.252 | 0.251 | 0.247 |  |  |  |  | 
11 | EBC-1 | 0.912 | 0.94 | 1.14 | 0.935 | 0.987 | 0.977 | 1.02 | 1.1 | 0.976 |  |  |  |  | 0.888 | 0.82 | 0.802 | 0.79 | 0.747
12 | IA-LM | 1.03 | 0.96 | 0.983 | 0.884 | 0.924 | 1.02 | 0.936 | 1.18 | 0.95 |  |  |  |  | 0.756 | 0.776 | 0.887 | 0.836 | 0.821
13 | NCI-H522 | 1.06 | 0.975 | 0.941 | 0.939 | 0.785 | 1.07 | 0.828 | 0.999 | 0.991 | 0.923 | 0.854 | 1.22 | 0.979 |  |  |  |  | 
14 | NCI-H727 | 0.959 | 1.19 | 1.09 | 1.08 | 1.03 | 1.02 | 0.807 | 1.13 | 1.05 |  |  |  |  | 0.683 | 0.66 | 0.629 | 0.547 | 0.597
15 | NCI-H1299 | 1.01 | 1 | 1.04 | 0.968 | 0.983 | 1.01 | 1.04 | 1.05 | 1 |  |  |  |  | 1.01 | 1.04 | 1.09 | 1.04 | 1.06
16 | NCI-H1648 | 0.878 | 0.916 | 0.991 | 0.769 | 0.773 |  | 0.662 | 0.93 | 1.2 |  |  | 0.745 | 0.774 |  |  |  |  | 
17 | NCI-H1650 | 0.998 | 0.835 | 0.959 | 0.938 | 0.865 | 0.967 | 0.935 | 1.1 | 0.842 | 0.353 | 0.411 | 0.433 | 0.365 |  |  |  |  | 
18 | NCI-H1703 | 0.914 | 0.981 | 0.955 | 0.94 | 0.778 | 0.941 | 1.01 | 0.983 | 0.738 |  |  |  |  | 0.364 | 0.347 | 0.294 | 0.345 | 0.33
19 | NCI-H2342 | 0.975 | 0.912 | 1.02 | 0.949 | 0.903 | 1.06 | 0.978 | 1.07 | 1.03 | 0.764 | 0.761 | 0.89 | 0.751 |  |  |  |  | 
20 | SW 900 | 0.923 | 0.774 | 0.754 | 0.881 | 0.883 | 0.847 | 0.858 | 0.9 | 0.742 | 0.444 | 0.47 | 0.562 | 0.467 |  |  |  |  | 
